What was measured:
Assay in all cases: relative viability (nuclei count vs DMSO), 5 days (fraction); higher = more cells survive
[1] = compound: C1COCCN1C2=NC(=NC3=C2OC4=C3C=CC=N4)C5=CC(=CC=C5)NC(=O)C6=CN=C(C=C6)N + O=C(c1cc(Cc2n[nH]c(=O)c3ccccc23)ccc1F)N1CCN(C(=O)C2CC2)CC1 [Olaparib] (partner 8 µM)
Summary of the method: (§1)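 The day after seeding in 1536-well plates, lung cancer cell lines were treated by pin tool with a single drug, or with a fixed anchor-drug dose together with five library-drug doses (not always all listed) in √10 steps. After 5 days, a combined fix-and-stain solution (final 0.05% Triton X-100, 1% formaldehyde, 1 ug/ml Hoechst) was added. Nuclei counted on 4× images gave relative viability as treated counts over vehicle counts, reported as the median of duplicate plates.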

[2] = compound: CN1CCC(CNc2ccc3ncc(-c4cccc(OC(F)(F)F)c4)n3n2)CC1 [SGI-1776] + NC(=O)Nc1cc(-c2cccc(F)c2)sc1C(=O)N[C@H]1CCCNC1 [AZD7762] (partner 0.2 µM)
Summary of the method: as §1

[3] = compound: CN1CCC(CNc2ccc3ncc(-c4cccc(OC(F)(F)F)c4)n3n2)CC1 [SGI-1776] + Cc1nc(Nc2ncc(C(=O)Nc3c(C)cccc3Cl)s2)cc(N2CCN(CCO)CC2)n1 [Dasatinib] (partner 0.075 µM)
Summary of the method: as §1

[4] = compound: CN1CCC(CNc2ccc3ncc(-c4cccc(OC(F)(F)F)c4)n3n2)CC1 [SGI-1776] + CS(=O)(=O)N1CCN(Cc2cc3nc(-c4cccc5[nH]ncc45)nc(N4CCOCC4)c3s2)CC1 [Pictilisib] (partner 1 µM)
Summary of the method: as §1

Cell Line	relative viability ([1]; first compound 0.02 µM)	relative viability ([1]; first compound 0.06325 µM)	relative viability ([1]; first compound 0.2 µM)	relative viability ([1]; first compound 0.6325 µM)	relative viability ([1]; first compound 2 µM)	relative viability ([2]; first compound 0.08 µM)	relative viability ([2]; first compound 0.8 µM)	relative viability ([2]; first compound 2.53 µM)	relative viability ([2]; first compound 8 µM)	relative viability ([3]; first compound 0.08 µM)	relative viability ([3]; first compound 0.8 µM)	relative viability ([3]; first compound 2.53 µM)	relative viability ([3]; first compound 8 µM)	relative viability ([4]; first compound 0.08 µM)	relative viability ([4]; first compound 0.8 µM)	relative viability ([4]; first compound 2.53 µM)	relative viability ([4]; first compound 8 µM)
NCI-H1651	0.177	0.18	0.195	0.171	0.161	0.537	0.519	0.494	0.419	0.535	0.378	0.381	0.312	0.671	0.559	0.421	0.432
NCI-H1666	0.757	0.74	0.729	0.804	0.755	0.945	0.873	0.862	0.834	0.822	0.791	0.75	0.711	0.568	0.403	0.404	0.313
NCI-H1734	0.645	0.646	0.611	0.564	0.496	0.616	0.687	0.654	0.568	0.55	0.426	0.441	0.434	0.468	0.472	0.396	0.332
NCI-H1755	0.875	0.922	0.92	0.702	0.594	0.459	0.575	0.463	0.378	0.454	0.437	0.351	0.287	0.386	0.442	0.367	0.299
NCI-H1792	0.826	0.598	0.303	0.235	0.219	0.587	0.786	0.768	0.438	0.781	0.742	0.637	0.491	0.282	0.264	0.284	0.231
NCI-H1793	0.831	0.884	0.968	0.769	0.508	0.558	0.408	0.32	0.252	0.395	0.332	0.382	0.405	0.301	0.256	0.399	0.314
NCI-H1915	0.215	0.273	0.245	0.266	0.269	0.756	0.663	0.705	0.791	0.315	0.273	0.29	0.261	0.934	0.979	0.964	0.838
NCI-H1944	0.424	0.41	0.42	0.413	0.512	0.619	0.595	0.518	0.441	0.223	0.2	0.223	0.173	0.355	0.334	0.343	0.324
NCI-H1975	0.772	0.865	1	0.86	0.381	0.749	0.745	0.631	0.43	0.385	0.369	0.253	0.232	0.382	0.311	0.246	0.203

From the supplement of paper PMC10307832
